Laboratory results reported in ChEMBL document CHEMBL4507263, “Data for DCP probe BAY-474” (2021).

Legend:
[1] = biological target: Proto-oncogene tyrosine-protein kinase ROS (Homo sapiens) (UniProt P08922); experiment: Ros (h) Millipore kinase activity assay; details: Compound concentration 1.0 uM
[2] = biological target: Prostaglandin E2 receptor EP4 subtype (Homo sapiens) (UniProt P35408); experiment: Inhibition of Prostanoid EP4 at 10 µM in the Eurofins-Panlabs radioligand binding assay (Eurofins_assay_268420); parameters: ligand concentration 1 nM; details: Compound concentration 10.0 uM
[3] = biological target: D(3) dopamine receptor (Homo sapiens) (UniProt P35462); details: Compound concentration 10.0 uM
[4] = biological target: Serine/threonine-protein kinase PAK 5 (Homo sapiens) (UniProt Q9P286); experiment: PAK5 (h) Millipore kinase activity assay; details: Compound concentration 1.0 uM
Serine/threonine-protein kinase PAK 5 (Homo sapiens), sequence (Q9P286 whole entry, looked up): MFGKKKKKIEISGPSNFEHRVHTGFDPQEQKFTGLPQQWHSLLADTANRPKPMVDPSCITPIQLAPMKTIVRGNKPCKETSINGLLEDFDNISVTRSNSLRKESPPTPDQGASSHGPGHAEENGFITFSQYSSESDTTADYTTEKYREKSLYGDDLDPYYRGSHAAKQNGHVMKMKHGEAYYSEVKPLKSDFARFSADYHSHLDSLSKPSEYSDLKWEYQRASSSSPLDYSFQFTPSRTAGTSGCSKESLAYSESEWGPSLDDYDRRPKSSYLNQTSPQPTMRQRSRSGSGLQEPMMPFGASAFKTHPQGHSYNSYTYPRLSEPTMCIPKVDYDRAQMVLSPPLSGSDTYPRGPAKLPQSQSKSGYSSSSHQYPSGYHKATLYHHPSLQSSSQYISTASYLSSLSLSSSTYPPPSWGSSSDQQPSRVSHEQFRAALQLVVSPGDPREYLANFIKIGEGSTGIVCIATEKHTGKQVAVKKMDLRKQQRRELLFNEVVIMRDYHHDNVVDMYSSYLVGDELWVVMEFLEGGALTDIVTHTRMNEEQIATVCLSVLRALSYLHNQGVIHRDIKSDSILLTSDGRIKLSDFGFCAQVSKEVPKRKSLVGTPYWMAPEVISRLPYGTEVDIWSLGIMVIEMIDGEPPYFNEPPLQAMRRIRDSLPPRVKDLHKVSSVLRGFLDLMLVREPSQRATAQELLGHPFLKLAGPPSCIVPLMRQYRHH

[5] = biological target: Mitogen-activated protein kinase 11 (Homo sapiens) (UniProt Q15759); experiment: SAPK2b (h) Millipore kinase activity assay; details: Compound concentration 1.0 uM
[6] = biological target: Glutamate NMDA receptor (Rattus norvegicus) (UniProt P35439+Q00959+Q00960+Q00961+Q62645+Q8VHN2+Q9R1M7); details: Compound concentration 10.0 uM
[7] = biological target: RAF proto-oncogene serine/threonine-protein kinase (Homo sapiens) (UniProt P04049); experiment: c-RAF (h) Millipore kinase activity assay; details: Compound concentration 1.0 uM
[8] = biological target: Cytoplasmic tyrosine-protein kinase BMX (Homo sapiens) (UniProt P51813); experiment: Bmx (h) Millipore kinase activity assay; details: Compound concentration 1.0 uM
[9] = biological target: MAP kinase-activated protein kinase 2 (Homo sapiens) (UniProt P49137); experiment: MAPKAP-K2 (h) Millipore kinase activity assay; details: Compound concentration 1.0 uM
MAP kinase-activated protein kinase 2 (Homo sapiens), sequence (P49137 whole entry, looked up): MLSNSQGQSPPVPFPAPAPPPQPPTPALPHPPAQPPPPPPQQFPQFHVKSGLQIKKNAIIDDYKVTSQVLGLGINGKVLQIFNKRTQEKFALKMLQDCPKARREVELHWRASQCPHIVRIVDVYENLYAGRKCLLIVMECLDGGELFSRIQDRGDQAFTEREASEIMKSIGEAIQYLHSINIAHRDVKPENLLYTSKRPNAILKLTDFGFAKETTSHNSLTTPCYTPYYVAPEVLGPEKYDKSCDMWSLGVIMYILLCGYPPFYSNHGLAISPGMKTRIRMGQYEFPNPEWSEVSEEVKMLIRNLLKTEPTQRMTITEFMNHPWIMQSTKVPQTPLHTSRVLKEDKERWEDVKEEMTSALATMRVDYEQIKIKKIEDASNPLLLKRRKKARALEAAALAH

[10] = biological target: G protein-coupled receptor kinase 5 (Homo sapiens) (UniProt P34947); experiment: GRK5 (h) Millipore kinase activity assay; details: Compound concentration 1.0 uM
[11] = biological target: Ribosomal protein S6 kinase alpha-1 (Homo sapiens) (UniProt Q15418); experiment: Rsk1 (h) Millipore kinase activity assay; details: Compound concentration 1.0 uM
Ribosomal protein S6 kinase alpha-1 (Homo sapiens), sequence (Q15418 whole entry): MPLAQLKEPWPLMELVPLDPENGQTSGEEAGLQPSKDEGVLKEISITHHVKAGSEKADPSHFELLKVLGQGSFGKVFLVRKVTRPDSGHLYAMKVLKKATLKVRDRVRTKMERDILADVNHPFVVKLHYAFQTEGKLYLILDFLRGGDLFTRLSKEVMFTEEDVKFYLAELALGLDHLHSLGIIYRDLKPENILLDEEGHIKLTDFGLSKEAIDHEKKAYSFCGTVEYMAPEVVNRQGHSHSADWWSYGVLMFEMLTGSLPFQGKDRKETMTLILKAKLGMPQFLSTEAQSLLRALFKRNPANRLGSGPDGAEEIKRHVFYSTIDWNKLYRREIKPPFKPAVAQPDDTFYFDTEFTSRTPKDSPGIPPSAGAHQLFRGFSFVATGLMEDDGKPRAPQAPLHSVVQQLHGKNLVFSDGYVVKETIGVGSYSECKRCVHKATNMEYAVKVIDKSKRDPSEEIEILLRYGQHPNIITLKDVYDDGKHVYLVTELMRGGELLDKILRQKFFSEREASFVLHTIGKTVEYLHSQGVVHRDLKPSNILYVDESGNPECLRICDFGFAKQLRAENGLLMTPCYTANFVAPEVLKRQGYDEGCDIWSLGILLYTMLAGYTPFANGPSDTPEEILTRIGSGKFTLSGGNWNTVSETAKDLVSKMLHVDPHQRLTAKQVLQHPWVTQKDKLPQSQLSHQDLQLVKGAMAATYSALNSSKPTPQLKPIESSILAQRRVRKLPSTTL

[12] = biological target: Muscle, skeletal receptor tyrosine-protein kinase (Homo sapiens) (UniProt O15146); experiment: MuSK (h) Millipore kinase activity assay; details: Compound concentration 1.0 uM
[13] = biological target: Serine/threonine-protein kinase PAK 3 (Homo sapiens) (UniProt O75914); experiment: PAK3 (h) Millipore kinase activity assay; details: Compound concentration 1.0 uM
[14] = biological target: Adenosine receptor A3 (Homo sapiens) (UniProt P0DMS8); details: Compound concentration 10.0 uM
[15] = biological target: Receptor-interacting serine/threonine-protein kinase 2 (Homo sapiens) (UniProt O43353); experiment: RIPK2 (h) Millipore kinase activity assay; details: Compound concentration 1.0 uM
[16] = biological target: Serine/threonine-protein kinase BRSK1 (Homo sapiens) (UniProt Q8TDC3); experiment: BrSK1 (h) Millipore kinase activity assay; details: Compound concentration 1.0 uM
Serine/threonine-protein kinase BRSK1 (Homo sapiens), sequence (Q8TDC3 whole entry): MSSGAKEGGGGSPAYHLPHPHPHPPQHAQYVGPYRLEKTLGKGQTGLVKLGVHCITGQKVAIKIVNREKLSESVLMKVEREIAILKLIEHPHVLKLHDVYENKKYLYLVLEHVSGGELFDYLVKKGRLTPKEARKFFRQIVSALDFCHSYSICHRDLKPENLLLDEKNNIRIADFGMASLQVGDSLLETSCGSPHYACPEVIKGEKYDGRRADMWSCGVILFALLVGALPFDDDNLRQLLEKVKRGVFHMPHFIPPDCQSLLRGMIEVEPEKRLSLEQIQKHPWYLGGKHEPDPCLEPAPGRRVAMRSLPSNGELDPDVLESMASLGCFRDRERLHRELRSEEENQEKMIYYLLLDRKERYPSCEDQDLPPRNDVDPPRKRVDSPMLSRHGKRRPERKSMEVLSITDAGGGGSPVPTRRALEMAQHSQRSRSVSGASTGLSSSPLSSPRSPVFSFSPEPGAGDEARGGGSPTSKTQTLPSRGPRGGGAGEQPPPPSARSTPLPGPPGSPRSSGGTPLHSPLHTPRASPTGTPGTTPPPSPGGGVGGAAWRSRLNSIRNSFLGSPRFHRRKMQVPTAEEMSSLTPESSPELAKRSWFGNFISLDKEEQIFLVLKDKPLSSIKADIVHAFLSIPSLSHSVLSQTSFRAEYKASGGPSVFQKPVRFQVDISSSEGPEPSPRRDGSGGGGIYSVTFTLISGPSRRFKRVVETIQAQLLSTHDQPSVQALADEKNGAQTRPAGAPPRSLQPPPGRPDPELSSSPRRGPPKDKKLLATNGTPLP

[17] = biological target: Calcium/calmodulin-dependent protein kinase type II subunit beta (Homo sapiens) (UniProt Q13554); experiment: CaMKIIbeta (h) Millipore kinase activity assay; details: Compound concentration 1.0 uM
Calcium/calmodulin-dependent protein kinase type II subunit beta (Homo sapiens), sequence (Q13554 whole entry): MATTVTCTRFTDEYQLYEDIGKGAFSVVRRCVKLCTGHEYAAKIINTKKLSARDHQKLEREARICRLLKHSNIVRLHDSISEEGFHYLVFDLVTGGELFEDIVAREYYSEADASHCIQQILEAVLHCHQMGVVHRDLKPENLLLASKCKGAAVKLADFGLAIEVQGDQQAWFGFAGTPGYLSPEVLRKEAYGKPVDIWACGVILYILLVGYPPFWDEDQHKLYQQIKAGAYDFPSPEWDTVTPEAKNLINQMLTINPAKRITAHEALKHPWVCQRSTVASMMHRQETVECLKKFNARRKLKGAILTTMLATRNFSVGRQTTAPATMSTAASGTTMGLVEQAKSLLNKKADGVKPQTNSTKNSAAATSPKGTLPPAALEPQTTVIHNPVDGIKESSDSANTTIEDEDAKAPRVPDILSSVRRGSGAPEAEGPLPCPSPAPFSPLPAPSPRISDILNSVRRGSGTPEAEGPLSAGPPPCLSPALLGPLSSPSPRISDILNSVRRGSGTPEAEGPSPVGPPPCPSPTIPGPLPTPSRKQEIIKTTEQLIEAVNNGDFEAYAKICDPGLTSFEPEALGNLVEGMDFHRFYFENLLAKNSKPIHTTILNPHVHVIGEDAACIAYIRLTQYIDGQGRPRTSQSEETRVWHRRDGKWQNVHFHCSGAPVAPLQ

[18] = biological target: Microtubule-associated serine/threonine-protein kinase 1 (Homo sapiens) (UniProt Q9Y2H9); details: Compound concentration 1000.0 nM
[19] = biological target: Fibroblast growth factor receptor 2 (Homo sapiens) (UniProt P21802); details: Compound concentration 1000.0 nM
[20] = biological target: STE20-like serine/threonine-protein kinase (Homo sapiens) (UniProt Q9H2G2); details: Compound concentration 1000.0 nM
[21] = biological target: Proto-oncogene tyrosine-protein kinase receptor Ret (Homo sapiens) (UniProt P07949); details: Compound concentration 1000.0 nM
[22] = biological target: Serine/threonine-protein kinase 36 (Homo sapiens) (UniProt Q9NRP7); details: Compound concentration 1000.0 nM
[23] = biological target: Myosin light chain kinase (Homo sapiens) (UniProt Q32MK0); details: Compound concentration 1000.0 nM
[24] = biological target: Activin receptor type-1-like (Homo sapiens) (UniProt P37023); details: Compound concentration 1000.0 nM
[25] = biological target: Tyrosine-protein kinase JAK2 (Homo sapiens) (UniProt O60674); details: Compound concentration 1000.0 nM
[26] = biological target: Ephrin type-A receptor 1 (Homo sapiens) (UniProt P21709); details: Compound concentration 1000.0 nM
[27] = biological target: Dual specificity testis-specific protein kinase 1 (Homo sapiens) (UniProt Q15569); details: Compound concentration 1000.0 nM
Dual specificity testis-specific protein kinase 1 (Homo sapiens), sequence (Q15569 whole entry, looked up): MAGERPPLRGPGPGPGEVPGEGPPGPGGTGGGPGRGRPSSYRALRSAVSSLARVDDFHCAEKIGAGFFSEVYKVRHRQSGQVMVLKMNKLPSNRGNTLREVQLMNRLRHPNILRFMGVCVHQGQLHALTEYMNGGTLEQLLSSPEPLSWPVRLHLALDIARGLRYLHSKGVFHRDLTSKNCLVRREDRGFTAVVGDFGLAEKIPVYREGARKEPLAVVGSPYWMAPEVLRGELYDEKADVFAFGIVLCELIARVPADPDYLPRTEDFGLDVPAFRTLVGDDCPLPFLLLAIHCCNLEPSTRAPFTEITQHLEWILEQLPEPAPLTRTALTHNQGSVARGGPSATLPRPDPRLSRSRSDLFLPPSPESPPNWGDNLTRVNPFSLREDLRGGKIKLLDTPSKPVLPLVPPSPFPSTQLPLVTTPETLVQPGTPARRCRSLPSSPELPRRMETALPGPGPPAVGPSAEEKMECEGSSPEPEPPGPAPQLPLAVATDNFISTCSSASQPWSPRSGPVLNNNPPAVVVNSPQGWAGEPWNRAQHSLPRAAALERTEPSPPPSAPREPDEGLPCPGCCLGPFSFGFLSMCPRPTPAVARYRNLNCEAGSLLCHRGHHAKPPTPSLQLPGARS

[28] = biological target: Mitogen-activated protein kinase 13 (Homo sapiens) (UniProt O15264); details: Compound concentration 1000.0 nM
[29] = biological target: Serine/threonine-protein kinase WNK1 (Homo sapiens) (UniProt Q9H4A3); details: Compound concentration 1000.0 nM
[30] = biological target: Serine/threonine-protein kinase pim-1 (Homo sapiens) (UniProt P11309); details: Compound concentration 1000.0 nM
[31] = biological target: NT-3 growth factor receptor (Homo sapiens) (UniProt Q16288); details: Compound concentration 1000.0 nM
[32] = biological target: Dual specificity tyrosine-phosphorylation-regulated kinase 1B (Homo sapiens) (UniProt Q9Y463); details: Compound concentration 1000.0 nM
[33] = biological target: Discoidin domain-containing receptor 2 (Homo sapiens) (UniProt Q16832); details: Compound concentration 1000.0 nM
[34] = test system: Proto-oncogene tyrosine-protein kinase receptor Ret (Homo sapiens), P07949 [V804M]; details: Compound concentration 1000.0 nM
Proto-oncogene tyrosine-protein kinase receptor Ret (Homo sapiens), P07949 [V804M], sequence (P07949 whole entry V804M): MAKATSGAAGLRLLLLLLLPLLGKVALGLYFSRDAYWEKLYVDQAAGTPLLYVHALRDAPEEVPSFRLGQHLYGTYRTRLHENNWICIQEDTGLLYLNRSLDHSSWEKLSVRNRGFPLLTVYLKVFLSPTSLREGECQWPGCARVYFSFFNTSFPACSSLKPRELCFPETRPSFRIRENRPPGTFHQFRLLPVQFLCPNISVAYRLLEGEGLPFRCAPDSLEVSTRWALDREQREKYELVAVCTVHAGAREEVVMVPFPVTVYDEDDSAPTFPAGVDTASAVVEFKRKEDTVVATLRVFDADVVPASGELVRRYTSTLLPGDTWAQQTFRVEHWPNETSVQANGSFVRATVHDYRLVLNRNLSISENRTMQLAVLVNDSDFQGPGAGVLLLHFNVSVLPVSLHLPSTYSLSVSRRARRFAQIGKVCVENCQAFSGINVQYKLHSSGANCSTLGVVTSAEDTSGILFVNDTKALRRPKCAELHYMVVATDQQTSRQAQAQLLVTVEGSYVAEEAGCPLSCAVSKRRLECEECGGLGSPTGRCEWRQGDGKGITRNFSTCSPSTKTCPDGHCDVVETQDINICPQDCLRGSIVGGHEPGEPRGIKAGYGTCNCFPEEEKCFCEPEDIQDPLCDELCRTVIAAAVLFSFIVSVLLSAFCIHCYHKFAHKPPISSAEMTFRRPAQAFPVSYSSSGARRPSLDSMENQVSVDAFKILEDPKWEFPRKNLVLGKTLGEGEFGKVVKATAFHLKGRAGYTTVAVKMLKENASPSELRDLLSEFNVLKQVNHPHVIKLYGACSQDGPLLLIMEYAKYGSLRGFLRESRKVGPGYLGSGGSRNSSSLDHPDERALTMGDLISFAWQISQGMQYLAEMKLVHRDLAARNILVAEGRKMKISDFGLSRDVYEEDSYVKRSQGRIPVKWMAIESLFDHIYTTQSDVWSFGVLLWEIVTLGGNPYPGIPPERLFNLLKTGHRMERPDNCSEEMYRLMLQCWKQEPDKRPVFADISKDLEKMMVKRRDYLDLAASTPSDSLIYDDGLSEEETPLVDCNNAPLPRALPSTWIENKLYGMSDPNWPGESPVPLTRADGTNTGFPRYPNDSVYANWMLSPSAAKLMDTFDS

[35] = test system: Epidermal growth factor receptor (Homo sapiens), P00533 [L858R]; details: Compound concentration 1000.0 nM
[36] = biological target: Cyclin-dependent kinase 2 (Homo sapiens) (UniProt P24941); details: Compound concentration 1000.0 nM
[37] = biological target: Serine/threonine-protein kinase STK11 (Homo sapiens) (UniProt Q15831); details: Compound concentration 1000.0 nM
[38] = biological target: Serine/threonine-protein kinase WNK3 (Homo sapiens) (UniProt Q9BYP7); details: Compound concentration 1000.0 nM
[39] = biological target: Serine/threonine-protein kinase MRCK beta (Homo sapiens) (UniProt Q9Y5S2); details: Compound concentration 1000.0 nM
[40] = biological target: Serine/threonine-protein kinase TAO1 (Homo sapiens) (UniProt Q7L7X3); details: Compound concentration 1000.0 nM
[41] = biological target: TGF-beta receptor type-2 (Homo sapiens) (UniProt P37173); details: Compound concentration 1000.0 nM
[42] = biological target: RAC-gamma serine/threonine-protein kinase (Homo sapiens) (UniProt Q9Y243); details: Compound concentration 1000.0 nM
[43] = biological target: Phosphatidylinositol 4,5-bisphosphate 3-kinase catalytic subunit beta isoform (Homo sapiens) (UniProt P42338); details: Compound concentration 1000.0 nM
[44] = test system: Epidermal growth factor receptor (Homo sapiens), P00533 [UNDEFINED MUTATION]; details: Compound concentration 1000.0 nM

CC1=C(C#N)C(c2ccc3[nH]nc(C)c3c2)C(C#N)=C(C)N1 [BAY-474]
inactive: inhibition [1] 25% | inhibition [2] 19% | inhibition [3] 12% | inhibition [4] -4% | inhibition [5] -10% | inhibition [6] 9% | inhibition [7] 1% | inhibition [8] -7% | inhibition [9] -2% | inhibition [10] 0% | inhibition [11] 46% | inhibition [12] 19% | inhibition [13] -8% | inhibition [14] 13% | inhibition [15] 5% | inhibition [16] 9% | inhibition [17] 4%

CC1=C(C#N)[C@@H](c2ccc3[nH]nc(C)c3c2)C(C#N)=C(c2ccc(Cl)cc2)N1 [BAY-827]
inactive: residual activity [18] 100% | residual activity [19] 74.3% | residual activity [20] 100% | residual activity [21] 100% | residual activity [22] 95.9% | residual activity [23] 100% | residual activity [24] 79% | residual activity [25] 100% | residual activity [26] 100% | residual activity [27] 100% | residual activity [28] 100% | residual activity [29] 100% | residual activity [30] 100% | residual activity [31] 100% | residual activity [32] 50.1% | residual activity [33] 99.4% | residual activity [34] 73.8% | residual activity [35] 89.5% | residual activity [36] 100% | residual activity [37] 100% | residual activity [38] 100% | residual activity [39] 100% | residual activity [40] 100% | residual activity [41] 74.6% | residual activity [42] 82.8% | residual activity [43] 100% | residual activity [44] 79.5%
